Results: article PMC2614347, “A Novel Peptide Enhances Therapeutic Efficacy of Liposomal Anti-Cancer Drugs in Mice Models of Human Lung Cancer” (PLoS ONE, 2009)
Ends that are not written are not given here.

Experiments:
[1] = system: CL1-5-derived xenografts; assay: Ligand-targeted therapy of lung cancer xenografts; assay type: in vivo, SCID mice; details: doxorubicin 1 mg/kg i.v. twice a week, eight injections; n = 6
Procedure: Mice 4–6 weeks of age were injected s.c. in the dorsolateral flank with human NSCLC cells. […] Mouse body weights and tumor sizes were measured twice a week. Tumor volumes were calculated using the equation: length×(width)^2×0.52. Animal care was carried out in accordance with guidelines of Academia Sinica, Taiwan.

[2] = Pharmacokinetic and biodistribution study of doxorubicin formulations; assay type: in vivo, SCID mice; details: 2 mg/kg i.v., n = 3 per time point
Procedure: At selected time points, three mice in each group were anaesthetized and sacrificed. Blood samples were collected through submaxillary punctures, and plasma samples were prepared. After perfusion, xenograft tumors and mouse organs were removed and homogenized.

[3] = system: H460-derived xenografts; assay: Ligand-targeted therapy of lung cancer xenografts; assay type: in vivo, SCID mice; details: doxorubicin 1 mg/kg i.v. twice a week, eight injections
[4] = system: NSCLC xenografts; assay: Doxorubicin autofluorescence microscopy of tumor sections; assay type: in vivo, SCID mice; details: fluorescence microscope; 1, 4 and 24 hours post-injection
Text: Tissue sections were imaged with a FLUAR 10×/0.50 NA lens and captured with a Roper Scientific CoolSnap HQ CCD camera. All images were captured in 8-bit signal depth and subsequently pseudo-colored.

[5] = system: CL1-5-derived tumors; assay: In vivo homing and tissue distribution of phages; parameters: species or system SCID mice
Procedure: SCID mice were injected subcutaneously (s.c.) in the dorsolateral flank with 1×10^7 human NSCLC cells. The mice bearing size-matched lung cancer xenografts (approximately 500 mm^3) were injected i.v. with 10^9 pfu of the targeting or control phage. After perfusion, xenograft tumors and mouse organs were removed and homogenized. The phages bound to each tissue sample were recovered through the addition of ER2738 bacteria and titered on IPTG/X-Gal agar plates. In the peptide competitive inhibition experiments, the phages were injected along with 100 µg synthetic targeting peptide, control peptide or mutant peptide. The organs and tumor masses were fixed in Bouin's solution (Sigma, MO, USA). After fixation, the samples were embedded in paraffin blocks. The paraffin sections were deparaffinized, rehydrated, and subjected to immunostaining using the mouse M13 mAb as described above.

[6] = system: PC13 cells; assay: Phage binding to cells, immunohistochemical staining; parameters: species or system human; details: immunohistochemistry, anti-M13 mAb
Procedure: (§1) Cells were plated and grown to about 80% confluence on cover slips. The cover slips were treated with 3% hydrogen peroxide plus 0.1% NaN3 to block endogenous peroxidase activity, and then incubated with phages. After the cover slips had been washed and fixed with 3% paraformaldehyde, they were incubated with HRP-labeled mouse anti-M13 mAb and treated with peroxidase substrate. For the peptide binding assays, 30 µg/ml FITC-labeled SP5-2 or control peptide was added on each cover slip and incubated. They were counterstained with Hoechst 33258 (Molecular Probes, OR, USA) and mounted with a mounting solution (Vector, CA, USA). The cells were then examined under a Leica universal microscope. The images were merged using the SimplePCI software (C-IMAGING, PA, USA).

[7] = system: oral cancer (SAS) cells; assay: as above; parameters: species or system human; details: immunohistochemistry, anti-M13 mAb
Procedure: as §1

[8] = system: normal epithelial cells (NNM) from nasal mucosa; assay: as above; parameters: species or system human; details: immunohistochemistry, anti-M13 mAb
Procedure: as §1

[9] = system: nasopharyngeal carcinoma cells (NPC-TW01); assay: as above; parameters: species or system human; details: immunohistochemistry, anti-M13 mAb
Procedure: as §1

[10] = system: CL1-5 cells; assay: as above; parameters: species or system human; details: immunohistochemistry, anti-M13 mAb
Procedure: as §1

[11] = system: SAS cells; assay: Phage binding, flow cytometry; parameters: species or system human
Procedure: (§2) The lung and other cancer cell lines were collected using PBS containing 50 mM EDTA, then incubated with phages or FITC-labeled peptides. For the peptide competitive inhibition assay, phages were mixed with different concentrations of the synthetic peptide and the mixture was incubated with the cells. After washing, the phage-bound cells were incubated with anti-M13 mAbs and then treated with FITC-conjugated goat anti-mouse IgG antibody. Cells were washed and analyzed with a flow cytometer (Becton Dickinson)
(§3) Fig. S2. The binding activity of PC5-2 to NSCLC cells was analyzed by flow cytometry. The samples included cells only (a, green), control phage (b, red), and PC5-2 (blue). The percentages indicate the fraction of cells gated for positive binding (c).

[12] = system: NNM cells; assay: Phage binding, flow cytometry; parameters: species or system human
Procedure: as §2, §3

[13] = system: surgical specimens of human lung cancer (pulmonary adenocarcinoma); assay: Binding of phages and synthetic peptides to surgical specimens of lung cancer, immunohistochemistry
Procedure: For localization of peptide binding on lung cancer tissues, frozen sections of NSCLC tissues were prepared and incubated with phage clones or biotin-labeled peptides. For the peptide competitive inhibition assay, phages were mixed with the synthetic targeting or mutant peptide. The slides were subjected to routine immunohistochemical staining, [30]. All surgical specimens were obtained from the tissue bank of National Taiwan University Hospital (NTUH) with approval from the Institutional Review Board in NTUH (IRB9461702021).

[14] = system: CL1-5 cells; assay: Phage binding and peptide competition, flow cytometry; parameters: species or system human; details: fraction of cells gated for positive binding
Procedure: as §2, §3

[15] = system: NPC-TW01 cells; assay: Phage binding, immunofluorescent staining; parameters: species or system human
[16] = system: CL1-5 cells
Procedure: (§4) FITC-labeled SP5-2 binding to NSCLC cells was analyzed by flow cytometry.

[17] = system: PC13 cells
Procedure: as §4

[18] = system: A549 cells
Procedure: as §4

[19] = system: H23 cells
Procedure: as §4

[20] = system: H460 cells
Procedure: as §4

COc1cccc2c1C(=O)c1c(O)c3c(c(O)c1C2=O)C[C@@](O)(C(=O)CO)C[C@@H]3O[C@H]1C[C@H](N)[C@H](O)[C@H](C)O1 [FD, doxorubicin]
Tumor size smaller than that in the PBS group [1]: 16%
Blood concentration of doxorubicin after administration ([2]; tail vein, spectrofluorometry): drops to background level within one hour
AUC0-48 h, Nuclear ([2]; nuclear doxorubicin in tumor): 3.7 μg h/g tumor
AUC0–48 hours of bioavailable doxorubicin (bound to nuclei) ([2]; tumor cell nuclei, spectrofluorometry): 3.7 µg·h/g
Reduction of tumor size compared with PBS group [3]: 14%
Areas of tumor sections with detectable doxorubicin [4]: no detectable doxorubicin

DMPKQLLAPWYY [PC5-4, phage clone displaying […]]
Recovery of PC5-4 phage from tumor versus control organs ([5]; i.v., recovered after perfusion, SCID mice bearing NSCLC xenografts (Fig. S4)): higher than from control organs

TDSILRSYDWTY [PC5-2]
Immunohistochemical localization of phage in normal organs after i.v. injection ([5]; brain, heart and lung tissues): no reaction product detected
Phage concentration in tumor masses relative to control organs ([5]; i.v. 10^9 pfu, recovered after perfusion, control organs brain, heart and lungs): 15 fold
Immunohistochemical localization of phage in tumor tissues after i.v. injection ([5]; tumor sections, anti-M13 mAb): localize in tumor tissues
Binding of phage to PC13 cells [6]: bound specifically
Binding of phage to SAS cells [7]: bound neither
Binding of phage to NNM cells [8]: nor to normal epithelial cells
Binding of phage to NPC-TW01 cells [9]: bound neither
Binding of phage to CL1-5 cells [10]: bound specifically
Binding of phage to SAS cells [11]: did not bind
Binding of phage to NNM cells [12]: did not bind
Recognition of tumor cells of NSCLC surgical specimens ([13]; frozen sections): recognized
Reaction area, HLC 1 ([13]; human lung cancer surgical specimen HLC 1): +++ (>50%)
Reaction area, HLC 2 ([13]; human lung cancer surgical specimen HLC 2): +++ (>50%)
Reaction area, HLC 3 ([13]; human lung cancer surgical specimen HLC 3): - (0%)
Reaction area, HLC 4 ([13]; human lung cancer surgical specimen HLC 4): + (<20%)
Reaction area, HLC 5 ([13]; human lung cancer surgical specimen HLC 5): +++ (>50%)
Reaction area, HLC 6 ([13]; human lung cancer surgical specimen HLC 6): ++ (50~20%)
Reaction area, HLC 7 ([13]; human lung cancer surgical specimen HLC 7): ++ (50~20%)
Reaction area, HLC 8 ([13]; human lung cancer surgical specimen HLC 8): ++ (50~20%)
Reaction area, HLC 9 ([13]; human lung cancer surgical specimen HLC 9): + (<20%)
Reaction area, HLC 10 ([13]; human lung cancer surgical specimen HLC 10): - (0%)
Reaction area, HLC 11 ([13]; human lung cancer surgical specimen HLC 11): ++ (50~20%)
Reaction area, HLC 12 ([13]; human lung cancer surgical specimen HLC 12): ++ (50~20%)
Reaction area, HLC 13 ([13]; human lung cancer surgical specimen HLC 13): + (<20%)
Reaction area, HLC 14 ([13]; human lung cancer surgical specimen HLC 14): - (0%)
Reaction area, HLC 15 ([13]; human lung cancer surgical specimen HLC 15): +++ (>50%)
Reaction area, HLC 16 ([13]; human lung cancer surgical specimen HLC 16): - (0%)
Reaction area, HLC 17 ([13]; human lung cancer surgical specimen HLC 17): - (0%)
Reaction area, HLC 18 ([13]; human lung cancer surgical specimen HLC 18): ++ (50~20%)
Reaction area, HLC 19 ([13]; human lung cancer surgical specimen HLC 19): +++ (>50%)
Reaction area, HLC 20 ([13]; human lung cancer surgical specimen HLC 20): +++ (>50%)
Reaction area, HLC 21 ([13]; human lung cancer surgical specimen HLC 21): ++ (50~20%)
Reaction area, HLC 22 ([13]; human lung cancer surgical specimen HLC 22): - (0%)
Reaction area, HLC 23 ([13]; human lung cancer surgical specimen HLC 23): - (0%)
Reaction area, HLC 24 ([13]; human lung cancer surgical specimen HLC 24): ++ (50~20%)
Reaction area, HLC 25 ([13]; human lung cancer surgical specimen HLC 25): +++ (>50%)
Reaction area, HLC 26 ([13]; human lung cancer surgical specimen HLC 26): +++ (>50%)
Reaction area, HLC 27 ([13]; human lung cancer surgical specimen HLC 27): + (<20%)
Reaction area, HLC 28 ([13]; human lung cancer surgical specimen HLC 28): ++ (50~20%)
Reaction area, HLC 29 ([13]; human lung cancer surgical specimen HLC 29): - (0%)
Reaction area, HLC 30 ([13]; human lung cancer surgical specimen HLC 30): ++ (50~20%)
Reaction area, HLC 31 ([13]; human lung cancer surgical specimen HLC 31): ++ (50~20%)
Reaction area, HLC 32 ([13]; human lung cancer surgical specimen HLC 32): - (0%)
Reaction area, HLC 33 ([13]; human lung cancer surgical specimen HLC 33): ++ (50~20%)
Reaction area, HLC 34 ([13]; human lung cancer surgical specimen HLC 34): +++ (>50%)
Reaction area, HLC 35 ([13]; human lung cancer surgical specimen HLC 35): + (<20%)
Reaction area, HLC 36 ([13]; human lung cancer surgical specimen HLC 36): ++ (50~20%)
CL1-5 cells bound by phage [14]: 42.6%
Binding of phage to NPC-TW01 cells [15]: did not bind

TDSILRSYDWTY [SP5-2]
Proportion of CL1-5 cells bound by SP5-2 [16]: 43.0%
Proportion of PC13 cells bound by SP5-2 [17]: 20.1%
Proportion of A549 cells bound by SP5-2 [18]: 44.3%
Proportion of H23 cells bound by SP5-2 [19]: 44.0%
Proportion of H460 cells bound by SP5-2 [20]: 45.8%
